Data from US20100068692A1, “ANTIFREEZE GLYCOPROTEIN ANALOGUES AND USES THEREOF” (UNIVERSITY OF OTTAWA, priority 2008, published 2010).
“Also recorded” adds a separate entry of the source.

How the values were obtained:
[1] = Nanolitre osmometry of carbohydrate solutions (Experiment 2); conditions: 10 mg/mL solutions in double-distilled water
Method: Nanoliter osmometry was performed using a nanoliter osmometer (Clifton Technical Physics, Hartford, N.Y.) as described by Chakrabartty and Hew (Chakrabartty, A.; Hew, C. L. Eur. J. Biochem. 1991, 202, 1057-1063). All measurements were made in doubly distilled water. Ice crystal morphology was observed through a Leitz compound microscope equipped with an Olympus 20× (infinity corrected) objective, Leitz Periplan 32× photo eyepiece and a Hitachi KP-M2U CCD camera connected to a Toshiba MV13K1 TV/VCR system. Still images were captured directly using a Nikon CoolPix digital camera.
It has been proposed that the optimal distance between hydroxyl groups is 4.2-4.5 Angstroms (Baruch, E.; Belostotskii, A. M.; Mastai, Y. J. Mol. Struct. 2008, 874, 170).

[2] = RI assay, splat cooling with domain recognition software (Experiment 2)
Method: Sample analysis for RI activity was performed using the “splat cooling” method as described previously (Knight, C. A.; Hallet, J.; DeVries, A. L. Cryobiology, 1998, 25, 55). In this method, the analyte is dissolved in phosphate buffered saline (PBS) solution and a 10 μL drop of this solution is dropped from a micropipette through a two metre high plastic tube (10 cm in diameter) onto a block of polished aluminum pre-cooled to approximately −80° C. The droplet freezes instantly on the polished aluminum block and is approximately 1 cm in diameter and 20 μm thick. This wafer is then carefully removed from the surface of the block and transferred to a cryostage held at −6.4° C. for annealing. After a period of 30 minutes, the wafer was photographed between crossed polarizing filters using a digital camera (Nikon CoolPix 5000) fitted to the microscope. A total of three images are taken from each wafer. During flash freezing, ice crystals spontaneously nucleate from the super-cooled solution. These initial crystals are relatively homogenous in size and quite small. During the annealing cycle recrystallization occurs, resulting in a dramatic increase in ice crystal size. A quantitative measure of the difference in recrystallization inhibition of two compounds X and Y is the difference in the dynamics of the ice crystal size distribution. […] This processing employed of the Microsoft Windows Graphical User Interface to allow a user to visually demarcate and store the vertices of ice domains in a digital micrograph. […] To eliminate the need to fully process each micrograph, an algorithm was developed to randomly display a number of x/y locations. The algorithm made use of a built-in pseudo random number generator (rand(x)) and was written so that no two locations were closer than 1/10th the field of view of the micrograph. The formula for the area of a polygon that is not self-intersecting and contains no holes is then given by Eq.2,
where N is the number of vertices, and x0, y0 to xN−1, yN−1 are the vertices circumventing the polygon in a clockwise direction. The point x0, y0 is assumed to be equivalent to the point xN, yN. The software was written in C using Microsoft Visual Studio 6.0 on a Pentium class personal computer running Microsoft Windows 2000 or XP. All data was plotted and analyzed using Microsoft Excel.

[3] = isentropic, value x10^4, aqueous solution at 298 K; cited from earlier work
[4] = Recrystallization inhibition (RI) assay, mean largest grain size (Experiment 1); conditions: carbohydrate concentration corrected to 0.021 mmole/L (FIG. 3)
Method: All measurements were performed in triplicate. The Y-axis depicts the mean largest grain size (MLGS in mm^2) of ice crystals measured directly from photographs of the sample, as described previously (Raymond, J. A. D., A. L., Proc. Natl. Acad. Sci. USA 1977, 74, 2589).
All samples were compared to a solution of phosphate buffered saline (PBS) which was used as a negative control and a solution of AFGP 8 isolated from Gagus ogac (generously provided by AquaBounty Farms). Each solution was tested at three different concentrations in order to rule out any non-specific RI effects. The Y-axis in FIG. 5 represents mean largest grain size (MLGS) where small bars are representative of potent recrystallization-inhibition activity.
The Y-axis in FIG. 7 represents the mean largest grain size (MLGS) which is an average ice crystal surface area for each sample.

[5] = Thermal hysteresis (TH), microcapilliary method
[6] = Nanoliter osmometer: thermal hysteresis and dynamic ice shaping (Experiment 1); conditions: without antifreeze the crystal is perfectly round, 'Identical images' refers to that, 13: 0.0033 mmole/L in doubly distilled water
Method: FIG. 4 (A) depicts a single ice crystal in the absence of biological antifreeze. Notice that the crystal is perfectly round and has no facets or edges.
AFGP analogues 18a-c were assayed for antifreeze protein-specific activity using nanoliter osmometry and a recrystallization-inhibition assay.

Compound: OCC1O[C@H](OCC2O[C@@H](O)C(O)C(O)[C@@H]2O)C(O)C(O)[C@H]1O (stereo partly shown) [melibiose]
- Melting Point [1]: −0.17 °C
- RI activity (in words) ([2]; 0.022 M in PBS solution): is the most potent
- Molar Compressibility (K2°(s)x10^4) [3]: −31.2 cm^3 mol^−1 bar^−1

Compound: N[C@@H](CCCCNC(=O)C[C@H]1OC(CO)[C@H](O)[C@H](O)C1O)C(=O)NCC(=O)NCC(=O)O (stereo partly shown) [Compound 10]
- RI activity relative to PBS (in words) [4]: do not show any RI activity

Compound: OCC1O[C@H](O[C@@H]2C(CO)O[C@@H](O)C(O)C2O)C(O)C(O)[C@@H]1O (stereo partly shown)
- Molar Compressibility (K2°(s)x10^4) [3]: −23.7 cm^3 mol^−1 bar^−1

Compound: C[S+](C)[O-] [DMSO, dimethylsulfoxide]
- RI activity (in words) ([2]; 0.1% (v/v) solution in PBS): failed to inhibit recrystallization
- RI activity (in words) ([2]; 4% (v/v) solution in PBS): produced a significant RI effect

Compound: OCC1O[C@@H](O)C(O)[C@@H](O)[C@H]1O (stereo partly shown) [talose]
- Molar Compressibility (K2°(s)x10^4) [3]: −11.9 cm^3 mol^−1 bar^−1

Compound: OCC1O[C@@H](O)C(O)[C@@H](O)[C@@H]1O (stereo partly drawn) [D-glucose]
- Melting Point [1]: −0.055 °C
- Molar Compressibility (K2°(s)x10^4) [3]: −17.6 cm^3 mol^−1 bar^−1

Compound: OC[C@H]1O[C@@](CO)(O[C@H]2O[C@H](CO)[C@@H](O)[C@H](O)[C@H]2O)[C@@H](O)[C@@H]1O [sucrose]
- RI activity (in words) ([2]; 0.022 M in PBS solution): little effect upon recrystallization

Compound: OCC1O[C@H](O[C@H]2OC(CO)[C@@H](O)C(O)C2O)C(O)C(O)[C@@H]1O (stereo partly drawn) [D-trehalose]
- Melting Point [1]: −0.015 °C

Compound: OCC1O[C@H](O[C@H]2OC(CO)[C@@H](O)C(O)C2O)C(O)C(O)[C@@H]1O (stereo partly shown) [drawing 28]
- Molar Compressibility (K2°(s)x10^4) [3]: −30.2 cm^3 mol^−1 bar^−1

Compound: (L-lysine-glycine-glycine)-6-glycine [peptide control]
- RI activity relative to PBS (in words) [4]: did not inhibit the growth of ice

Compound: [Cl-].[Na+] [salt, sodium chloride]
- temperature below the melting point at which rapid crystal growth occurred / solution freezes [5]: −0.01 °C
- single ice crystal morphology [6]: Identical images

Compound: OCC(O)CO [glycerol]
- temperature below the melting point at which rapid crystal growth occurred / solution freezes [5]: −0.01 °C

Compound: OCC1O[C@@H](O)C(O)[C@@H](O)[C@H]1O (stereo partly drawn) [D-galactose]
- Melting Point [1]: −0.069 °C
- RI activity (in words) ([2]; 0.022 M in PBS solution): inhibit recrystallization as well as a 3% DMSO solution
- RI activity (in words) ([2]; 0.022 M in PBS solution, listed as galactose): as efficient at inhibiting recrystallization as a 3% (v/v) DMSO solution; also recorded: possesses the most RI activity
- RI activity (in words) ([2]; 0.044 M solution in PBS): RI activity similar to that of a 0.022 M solution
- RI activity (in words) ([2]; 0.22 M solution in PBS): effective inhibitor of recrystallization
